Experimental data: patent US20190290772A1 (published 2019)

Columns and labels:
[1] = test system: diet-induced obese (DIO) mice; assay: Weight-lowering and metabolic pharmacology in diet-induced obese mice on HFHSD; format: in vivo; conditions: for effect on body weight: DIO mice on HFHSD, equimolar doses, daily s.c. (FIG. 5A); for food intake: DIO mice (FIG. 5C)
Description: (§1) For pharmacology studies on energy metabolism in obese mice (DIO mice), male C57Bl/6j mice (Jackson Laboratories) were fed a diabetogenic diet (Research Diets D12331), which is a high-sucrose diet with 58% kcal from fat 25.5% kcal from carbohydrates, and 16.4% kcal from protein. Dietary challenges began at 8 weeks of age. HFHSD mice were single- or group-housed on a 12:12-h light-dark cycle at 22° C. with free access to food and water. Mice were maintained under these conditions for a minimum of 16 weeks before initiation of pharmacological studies and were between the ages of 6 months to 12 months old. All injections and tests were performed during the light cycle. Compounds were administered in a vehicle of 1% Tween-80 and 1% DMSO and were given by daily subcutaneous injections at the indicated doses at a volume of 5 μl per g body weight. Mice were randomized and evenly distributed to test groups according to body weight and body composition. If ex vivo molecular biology/histology/biochemistry analyses were performed, the entire group of mice for each treatment was analyzed and scored in a blinded fashion.
Compounds were administered by repeated subcutaneous injections in the middle of the light phase at the indicated doses with the indicated durations. Co-administration of compounds was administered by single formulated injections. Body weights and food intake were measured every day or every other day after the first injection. All studies with wild-type mice were performed with a group size of n=8 or greater using mice on a C57B16j background.
For assessment of intraperitoneal glucose tolerance during chronic treatment, the challenge tests were performed at least 24 hours after the last administration of compounds. The investigators were not blinded to group allocation during the in vivo experiments or to the assessment of longitudinal endpoints. All rodent studies were approved by and performed according to the guidelines of the Institutional Animal Care and Use Committee of the Helmholtz Center Munich, University of Cincinnati, Universite de Lyon, and in accordance with guidelines of the Association for the Assessment and Accreditation of Laboratory and Animal Care (AAALAC # Unit Number: 001057) and appropriate federal, state and local guidelines, respectively.
Whole-body composition (fat and lean mass) was measured using nuclear magnetic resonance technology (EchoMRI).

[2] = biological target: human glucagon receptor (GcgR) (Homo sapiens, UniProt P47871); assay: Human glucagon receptor activation (Table 1); format: cell-based; conditions: read-out: EC50 (nM) hGcgR
[3] = test system: diet-induced obese (DIO) mice; assay: Heart weight / cardiac hypertrophy in DIO mice; conditions: mouse, in vivo
Description: For pharmacology studies on energy metabolism in obese mice (DIO mice), male C57Bl/6j mice (Jackson Laboratories) were fed a diabetogenic diet (Research Diets D12331), which is a high-sucrose diet with 58% kcal from fat 25.5% kcal from carbohydrates, and 16.4% kcal from protein. Dietary challenges began at 8 weeks of age. HFHSD mice were single- or group-housed on a 12:12-h light-dark cycle at 22° C. with free access to food and water. Mice were maintained under these conditions for a minimum of 16 weeks before initiation of pharmacological studies and were between the ages of 6 months to 12 months old. All injections and tests were performed during the light cycle. Compounds were administered in a vehicle of 1% Tween-80 and 1% DMSO and were given by daily subcutaneous injections at the indicated doses at a volume of 5 μl per g body weight. Mice were randomized and evenly distributed to test groups according to body weight and body composition. If ex vivo molecular biology/histology/biochemistry analyses were performed, the entire group of mice for each treatment was analyzed and scored in a blinded fashion. Compounds were administered by repeated subcutaneous injections in the middle of the light phase at the indicated doses with the indicated durations. […] Body weights and food intake were measured every day or every other day after the first injection. […]

[4] = test system: diet-induced obese (DIO) mice; assay: Indirect calorimetry in DIO mice (energy expenditure, RER, home-cage activity, food intake); format: in vivo
Description: as §1, with “fashion. Energy intake, energy expenditure, respiratory exchange ratio, and home-cage activity were assessed using a combined indirect calorimetry system (TSE Systems). O2 consumption and CO2 production were measured every 10 min for a total of up to 160 h (after 24 h of adaptation) to determine the respiratory quotient and energy expenditure after an initial treatment regimen. Food intake was determined continuously for the same time as the indirect calorimetry assessments by integration of scales into the sealed cage environment. Home-cage locomotor activity was determined using a multidimensional infrared light beam system with beams scanning the bottom and top levels of the cage, and activity being expressed as beam breaks.” for “fashion.”

| Structure (SMILES) | effect on body weight [1] | EC50 [2] [nM] | heart weight / cardiac hypertrophy [3] | food intake [1] | absolute decrease in body weight from baseline ([1]; DIO mice, 100 nmoles/kg, daily subcutaneous treatment, after a week (FIG. 5A)) [%] | food intake during calorimetry ([4]; DIO mice (FIG. 6D)) | body weight loss during calorimetry study ([4]; DIO mice (FIG. 6E)) | home cage / ambulatory activity ([4]; DIO mice (FIG. 6F)) | whole-body energy expenditure ([4]; DIO mice, indirect calorimetry (FIG. 6C)) | glucose tolerance ([1]; DIO mice, higher dose, equimolar (FIG. 5D)) |
| --- | --- | --- | --- | --- | --- | --- | --- | --- | --- | --- |
| CC[C@H](C)[C@H](NC(=O)[C@H](Cc1ccccc1)NC(=O)[C@H](CCC(=O)O)NC(=O)[C@H](CCCCN)NC(=O)[C@H](C)NC(=O)[C@H](C)NC(=O)[C@H](CCC(N)=O)NC(=O)[C@H](CCC(=O)O)NC(=O)[C@H](CCC(=O)O)NC(=O)[C@H](CC(C)C)NC(=O)[C@H](Cc1ccc(O)cc1)NC(=O)[C@H](CO)NC(=O)[C@H](CO)NC(=O)[C@@H](NC(=O)[C@H](CC(=O)O)NC(=O)[C@H](CO)NC(=O)[C@@H](NC(=O)[C@H](Cc1ccccc1)NC(=O)[C@@H](NC(=O)CNC(=O)[C@H](CCC(=O)O)NC(=O)C(C)(C)NC(=O)[C@@H](N)Cc1c[nH]cn1)[C@@H](C)O)[C@@H](C)O)C(C)C)C(=O)N[C@@H](C)C(=O)N[C@@H](Cc1c[nH]c2ccccc12)C(=O)N[C@@H](CC(C)C)C(=O)N[C@H](C(=O)N[C@@H](CCCCN)C(=O)NCC(=O)NCC(=O)N1CCC[C@H]1C(=O)N[C@@H](CO)C(=O)N[C@@H](CO)C(=O)NCC(=O)N[C@@H](C)C(=O)N1CCC[C@H]1C(=O)N1CCC[C@H]1C(=O)N1CCC[C@H]1C(=O)N[C@@H](CO)C(=O)N[C@@H](CCCCN)C(N)=O)C(C)C [IUB48] | minimal impact on body weight | > 100 |  |  |  |  |  |  |  |  |
| CC[C@H](C)[C@H](NC(=O)[C@H](Cc1ccccc1)NC(=O)[C@H](CCC(=O)O)NC(=O)[C@H](CCCCN)NC(=O)[C@H](C)NC(=O)[C@H](C)NC(=O)[C@H](CCC(N)=O)NC(=O)[C@H](CCC(=O)O)NC(=O)[C@H](CCC(=O)O)NC(=O)[C@H](CC(C)C)NC(=O)[C@H](Cc1ccc(O)cc1)NC(=O)[C@H](CO)NC(=O)[C@H](CO)NC(=O)[C@@H](NC(=O)[C@H](CC(=O)O)NC(=O)[C@H](CO)NC(=O)[C@@H](NC(=O)[C@H](Cc1ccccc1)NC(=O)[C@@H](NC(=O)CNC(=O)[C@H](CCC(=O)O)NC(=O)C(C)(C)NC(=O)[C@@H](N)Cc1c[nH]cn1)[C@@H](C)O)[C@@H](C)O)C(C)C)C(=O)N[C@@H](C)C(=O)N[C@@H](Cc1c[nH]c2ccccc12)C(=O)N[C@@H](CC(C)C)C(=O)N[C@H](C(=O)N[C@@H](CCCCN)C(=O)NCC(=O)NCC(=O)N1CCC[C@H]1C(=O)N[C@@H](CO)C(=O)N[C@@H](CO)C(=O)NCC(=O)N[C@@H](C)C(=O)N1CCC[C@H]1C(=O)N1CCC[C@H]1C(=O)N1CCC[C@H]1C(=O)N[C@@H](CO)C(=O)N[C@@H](CCCCNC(=O)CC[C@H](NC(=O)[C@@H](N)Cc1cc(I)c(Oc2ccc(O)c(I)c2)c(I)c1)C(=O)O)C(N)=O)C(C)C [IUB686, IUB48-(gE-T3-NH2)-amide] |  | > 100 | did not increase raw heart weight |  |  |  |  |  |  |  |
| CC[C@H](C)[C@H](NC(=O)[C@H](Cc1ccccc1)NC(=O)[C@H](CCC(=O)O)NC(=O)[C@H](CCCCN)NC(=O)[C@H](C)NC(=O)[C@H](C)NC(=O)[C@H](CCC(N)=O)NC(=O)[C@H](CCC(=O)O)NC(=O)[C@H](CCC(=O)O)NC(=O)[C@H](CC(C)C)NC(=O)[C@H](Cc1ccc(O)cc1)NC(=O)[C@H](CO)NC(=O)[C@H](CO)NC(=O)[C@@H](NC(=O)[C@H](CC(=O)O)NC(=O)[C@H](CO)NC(=O)[C@@H](NC(=O)[C@H](Cc1ccccc1)NC(=O)[C@@H](NC(=O)CNC(=O)[C@H](CCC(=O)O)NC(=O)C(C)(C)NC(=O)[C@@H](N)Cc1c[nH]cn1)[C@@H](C)O)[C@@H](C)O)C(C)C)C(=O)N[C@@H](C)C(=O)N[C@@H](Cc1c[nH]c2ccccc12)C(=O)N[C@@H](CC(C)C)C(=O)N[C@H](C(=O)N[C@@H](CCCCN)C(=O)NCC(=O)NCC(=O)N1CCC[C@H]1C(=O)N[C@@H](CO)C(=O)N[C@@H](CO)C(=O)NCC(=O)N[C@@H](C)C(=O)N1CCC[C@H]1C(=O)N1CCC[C@H]1C(=O)N1CCC[C@H]1C(=O)N[C@@H](CO)C(=O)N[C@@H](CCCCNC(=O)CCC(=O)N[C@@H](Cc1cc(I)c(Oc2ccc(O)c(I)c2)c(I)c1)C(=O)O)C(N)=O)C(C)C [IUB687, IUB48-(Suc-T3-OH)-amide] | significantly lowered body weight in a dose-dependent manner | > 100 |  | no reductions in food intake | 11 |  |  |  |  |  |
| N[C@@H](Cc1cc(I)c(Oc2ccc(O)c(I)c2)c(I)c1)C(=O)O [Peptide T3, Triiodothyronine] | minimal impact on body weight |  |  | increased |  | hyperphagia | less body weight loss | significantly increased home cage activity | substantially increased whole-body energy expenditure | improved glycemic control |
